Assays:
Assay type in all cases: functional, organism-based; call rule not given here
Candida albicans [1] = experiment: Compound was tested for growth inhibition against Candida albicans (CIP 1180.79)
Saccharomyces cerevisiae [2] = experiment: Compound was tested for growth inhibition against Saccharomyces cerevisiae (ATCC 28383)
Saccharomyces cerevisiae [3] = experiment: Compound was tested for growth inhibition against Saccharomyces cerevisiae (ATCC 28383); Inactive over 250 uM
Candida albicans [4] = experiment: Compound was tested for growth inhibition against Candida albicans (CIP 1180.79); Inactive over 250 uM
Candida albicans [5] = experiment: Compound was tested for growth inhibition against Candida albicans (CIP 1180.79); Slow development (>80-<100 uM)
Saccharomyces cerevisiae [6] = experiment: Compound was tested for growth inhibition against Saccharomyces cerevisiae (ATCC 28383); Slow development (>80-<100 uM)

| SMILES | IC50 (Candida albicans [1]) | IC50 (Saccharomyces cerevisiae [2]) | IC50 (Saccharomyces cerevisiae [3]) | IC50 (Candida albicans [4]) | IC50 (Candida albicans [5]) | IC50 (Saccharomyces cerevisiae [6]) |
| --- | --- | --- | --- | --- | --- | --- |
| CC(C)CCC[C@@H](C)C1CC[C@H]2[C@@H]3C[C@H](N)[C@H]4C[C@@H](O)CC[C@]4(C)[C@H]3CC[C@]12C (some centres not stated) | < 31 µM | < 15 µM | – | – | – | – |
| CC(C)CCC[C@@H](C)C1CC[C@H]2[C@@H]3C[C@H]([N+](=O)[O-])[C@H]4C[C@@H](O)CC[C@]4(C)[C@H]3CC[C@]12C (some centres not stated) | – | – | Not Active | Not Active | – | – |
| CC(=O)N[C@H]1C[C@@H]2[C@H](CC[C@]3(C)C([C@H](C)CCCC(C)C)CC[C@@H]23)[C@@]2(C)CC[C@H](O)C[C@H]12 (some centres not stated) | – | – | – | – | > 80 µM | > 80 µM |
| CC(=O)N[C@@H]1C[C@@H]2[C@H](CC[C@]3(C)C([C@H](C)CCCC(C)C)CC[C@@H]23)[C@@]2(C)CC[C@H](O)C[C@H]12 (some centres not stated) | – | – | – | – | > 80 µM | > 80 µM |
| CC(C)CCC[C@@H](C)C1CC[C@H]2[C@@H]3C[C@@H](N)C4C[C@@H](O)CC[C@]4(C)[C@H]3CC[C@]12C (some centres not stated) | < 7 µM | < 15 µM | – | – | – | – |
| CC(C)CCC[C@@H](C)C1CC[C@H]2[C@@H]3C[C@@H]([N+](=O)[O-])[C@H]4C[C@@H](O)CC[C@]4(C)[C@H]3CC[C@]12C (some centres not stated) | – | – | Not Active | Not Active | – | – |
